Several values for one entry are separate records, joined by “and”; a condition that tells them apart may be missing. Identical values can stand only once. Inconclusive results and toxic doses are left out. No stated cut-off is given here; in the data, active means T/C of 150% or more; inactive means T/C below 125%.
Test system: L1210 leukemia ip in BDF1 mice, survival T/C
Experiment: NCI In Vivo Anticancer Drug Screen. Data for tumor model L1210 Leukemia (intraperitoneal) in B6D2F1 (BDF1) mice
Details: endpoint: mean survival time, higher = longer survival
In short: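 In this screen, tumor-bearing mice given compound are compared to those given vehicle, and their survival values are reported as a treated-to-control quotient.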

[1] = dose: 10.0 mg/kg/injection, schedule: Q04DX003 (ip), vehicle: Klucel (hydroxypropylcellulose) (HPC)
[2] = dose: 75.0 mg/kg/injection, schedule: Q04DX003 (ip), vehicle: saline with Tween-80
[3] = dose: 150.0 mg/kg/injection, schedule: Q04DX003 (ip), vehicle: saline with Tween-80

Measured: T/C

O=C(O)C(Cc1cccs1)Cc1cccs1
inactive: dose: 50.0 mg/kg/injection, schedule: Q04DX003 (ip), vehicle: carboxymethylcellulose (CMC) 120 % of control | dose: 100.0 mg/kg/injection, schedule: Q04DX003 (ip), vehicle: carboxymethylcellulose (CMC) 104 % of control | dose: 200.0 mg/kg/injection, schedule: Q04DX003 (ip), vehicle: carboxymethylcellulose (CMC) 108 % of control

CC1(C)N=C(N)N=C(N)N1c1cccc(OCCOc2ccccc2[N+](=O)[O-])c1
inactive: dose: 10.0 mg/kg/injection, schedule: Q01DX001 (ip), vehicle: Klucel (hydroxypropylcellulose) (HPC) 108 % of control | dose: 10.0 mg/kg/injection, schedule: Q01DX009 (ip), vehicle: Klucel (hydroxypropylcellulose) (HPC) 98 % of control and 101 % of control | dose: 10.0 mg/kg/injection, schedule: Q04DX002 (ip), vehicle: Klucel (hydroxypropylcellulose) (HPC) 94 % of control and 90 % of control | [1] 96 % of control | dose: 20.0 mg/kg/injection, schedule: Q01DX001 (ip), vehicle: Klucel (hydroxypropylcellulose) (HPC) 104 % of control | dose: 20.0 mg/kg/injection, schedule: Q01DX009 (ip), vehicle: Klucel (hydroxypropylcellulose) (HPC) 102 % of control and 108 % of control | dose: 20.0 mg/kg/injection, schedule: Q04DX002 (ip), vehicle: Klucel (hydroxypropylcellulose) (HPC) 101 % of control and 120 % of control | dose: 20.0 mg/kg/injection, schedule: Q04DX003 (ip), vehicle: Klucel (hydroxypropylcellulose) (HPC) 100 % of control | dose: 40.0 mg/kg/injection, schedule: Q01DX001 (ip), vehicle: Klucel (hydroxypropylcellulose) (HPC) 101 % of control | dose: 40.0 mg/kg/injection, schedule: Q01DX009 (ip), vehicle: Klucel (hydroxypropylcellulose) (HPC) 104 % of control and 108 % of control | dose: 40.0 mg/kg/injection, schedule: Q04DX002 (ip), vehicle: Klucel (hydroxypropylcellulose) (HPC) 94 % of control and 90 % of control | dose: 40.0 mg/kg/injection, schedule: Q04DX003 (ip), vehicle: Klucel (hydroxypropylcellulose) (HPC) 102 % of control

CCCCC1(CC)COC(C)(CCc2ccc(OC)cc2)OC1 (centres undefined)
inactive: dose: 100.0 mg/kg/injection, schedule: Q01DX001 (ip), vehicle: acetone 93 % of control | dose: 200.0 mg/kg/injection, schedule: Q01DX001 (ip), vehicle: acetone 93 % of control | dose: 400.0 mg/kg/injection, schedule: Q01DX001 (ip), vehicle: acetone 90 % of control

Nc1c(F)c(F)c(-c2c(F)c(F)c(N)c(F)c2F)c(F)c1F
inactive: dose: 37.5 mg/kg/injection, schedule: Q04DX003 (ip), vehicle: saline with Tween-80 98 % of control | [2] 102 % of control | [3] 95 % of control

C=CCN(CC#N)CC#N
inactive: dose: 5.0 mg/kg/injection, schedule: Q04DX003 (ip), vehicle: Klucel (hydroxypropylcellulose) (HPC) 98 % of control | [1] 100 % of control (2×) and 86 % of control

CN(C)c1ccc(N=Nc2cccc(Cl)c2)cc1
inactive: dose: 100.0 mg/kg/injection, schedule: Q01DX009 (ip), vehicle: Klucel (hydroxypropylcellulose) (HPC) 97 % of control | dose: 200.0 mg/kg/injection, schedule: Q01DX009 (ip), vehicle: Klucel (hydroxypropylcellulose) (HPC) 97 % of control | dose: 400.0 mg/kg/injection, schedule: Q01DX009 (ip), vehicle: Klucel (hydroxypropylcellulose) (HPC) 90 % of control

CC(C)(C)c1nc2cc(Cl)c(Cl)cc2[nH]1
inactive: dose: 75.0 mg/kg/injection, schedule: Q01DX001 (ip), vehicle: other 102 % of control | dose: 75.0 mg/kg/injection, schedule: Q01DX009 (ip), vehicle: saline with Tween-80 96 % of control | [2] 103 % of control | dose: 150.0 mg/kg/injection, schedule: Q01DX001 (ip), vehicle: other 96 % of control | dose: 150.0 mg/kg/injection, schedule: Q01DX009 (ip), vehicle: saline with Tween-80 90 % of control | [3] 110 % of control | dose: 300.0 mg/kg/injection, schedule: Q01DX001 (ip), vehicle: other 109 % of control | dose: 300.0 mg/kg/injection, schedule: Q01DX009 (ip), vehicle: saline with Tween-80 103 % of control | dose: 300.0 mg/kg/injection, schedule: Q04DX003 (ip), vehicle: saline with Tween-80 107 % of control

O=C(O)C1OC1(c1ccccc1Cl)c1ccccc1Cl (centres undefined)
inactive: dose: 50.0 mg/kg/injection, schedule: Q01DX001 (ip), vehicle: saline 101 % of control | dose: 100.0 mg/kg/injection, schedule: Q01DX001 (ip), vehicle: saline 95 % of control | dose: 200.0 mg/kg/injection, schedule: Q01DX001 (ip), vehicle: saline 98 % of control | dose: 400.0 mg/kg/injection, schedule: Q01DX001 (ip), vehicle: saline 104 % of control

— PubChem BioAssay AID248 (DTP/NCI, 2004)
